Reference: patent US11000033B2, “Ketone or oxime compound, and herbicide” (NISSAN CHEMICAL CORPORATION, priority 2014, dated 2021)

Legend:
Type in all cases: in vivo
[1] = test system: Echinochloa oryzacola Vasing.; assay: Test Example 2: herbicidal activity, application during weed generation in submerged conditions (symbol A); conditions: Table 23; application herbicide amount 320 g/ha; grade 0-5 by criteria of Test Example 1
Procedure, shortened: (§1)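 Visual herbicidal ratings, taken three weeks after dosing, reflect post-emergence water-surface application to seedlings at one to two leaves. Conditions: co-sown weeds in alluvial soil flooded to 4 cm, greenhouse held at 25° C. to 30° C.; compound given as water-diluted emulsion at a fixed herbicide amount.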

[2] = test system: Monochoria vaginalis; assay: Test Example 2: herbicidal activity, application during weed generation in submerged conditions (symbol C); conditions: Table 23; application herbicide amount 320 g/ha; grade 0-5 by criteria of Test Example 1
Procedure, shortened: as §1

[3] = test system: Echinochloa crus-galli var. crus-galli; assay: Test Example 3: herbicidal effect by foliage application, Wagner pot (symbol H); conditions: application herbicide amount 320 g/ha
Procedure, shortened: (§2)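 Herbicidal activity was rated three weeks after a foliar spray of diluted emulsion concentrate, applied at a predetermined dose to plants grown for 14 days from seed in waterlogged alluvial soil within a 25–30 °C greenhouse.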

[4] = test system: Leptochloa chinensis; assay: Test Example 3: herbicidal effect by foliage application, Wagner pot (symbol D); conditions: application herbicide amount 320 g/ha
Procedure, shortened: as §2

[5] = test system: Cyperus difformis; assay: Test Example 3: herbicidal effect by foliage application, Wagner pot (symbol E); conditions: application herbicide amount 320 g/ha
Procedure, shortened: as §2

[6] = test system: Digitaria ciliaris; assay: Test Example 4: herbicidal effect by soil treatment (symbol F); conditions: application herbicide amount 320 g/ha
Procedure, shortened: (§3)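 Seeds were sown in sterilized diluvial soil, covered with about 1.5 cm of soil, and the soil surface was sprayed with a water-diluted emulsion of the compound at a predetermined rate. Plants grew in a greenhouse at 25° C. to 30° C.; effects were scored visually 3 weeks after application.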

[7] = test system: Setaria viridis; assay: Test Example 4: herbicidal effect by soil treatment (symbol G); conditions: application herbicide amount 320 g/ha
Procedure, shortened: as §3

[8] = test system: Alopecurus myosuroides; assay: Test Example 4: herbicidal effect by soil treatment (symbol J); conditions: application herbicide amount 320 g/ha
Procedure, shortened: as §3

[9] = test system: Abutilon theophrasti; assay: Test Example 4: herbicidal effect by soil treatment (symbol M); conditions: application herbicide amount 320 g/ha
Procedure, shortened: as §3

[10] = test system: Stellaria media; assay: Test Example 4: herbicidal effect by soil treatment (symbol P); conditions: application herbicide amount 320 g/ha
Procedure, shortened: as §3

[11] = test system: Veronica persica; assay: Test Example 4: herbicidal effect by soil treatment (symbol R); conditions: application herbicide amount 320 g/ha
Procedure, shortened: as §3

[12] = test system: corn; assay: Test Example 4: effect on crop by soil treatment (symbol c); conditions: application herbicide amount 320 g/ha
Procedure, shortened: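 Greenhouse culture at 25° C. to 30° C. followed sowing of seed in spots on sterilized diluvial soil with a soil cover close to 1.5 cm thick.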

[13] = test system: Stellaria media; assay: Test Example 5: herbicidal effect by foliage application, plastic box (symbol P); conditions: 320 g/ha, 3 weeks after application
Procedure, shortened: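 Visual herbicidal score, taken three weeks post-application, of seedlings sprayed on the foliage with water-diluted emulsion at a predetermined amount; plants were 14 days old, greenhouse-raised at 25° C. to 30° C.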

[14] = test system: wheat; assay: Test Example 5: effect on crop by foliage application, plastic box (symbol e); conditions: 320 g/ha, 3 weeks after application
Procedure, shortened: (§4)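 Soil: sterilized diluvial. Container: plastic box, 21 × 13 cm, 7 cm deep. Sowing: spot-like, ~1.5 cm cover. Growth: greenhouse, 25° C. to 30° C.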

[15] = test system: rapeseed; assay: Test Example 5: effect on crop by foliage application, plastic box (symbol g); conditions: 320 g/ha, 3 weeks after application
Procedure, shortened: as §4

SMILES | Herbicidal effect grade, A: Echinochloa oryzacola Vasing. [1] | Herbicidal effect grade, C: Monochoria vaginalis [2] | herbicidal effect on H (Echinochloa crus-galli var. crus-galli), grade 0-5 [3] | herbicidal effect on D (Leptochloa chinensis), grade 0-5 [4] | herbicidal effect on E, grade 0-5 [5] | F: Digitaria ciliaris, herbicidal effect grade [6] | G: Setaria viridis, herbicidal effect grade [7] | J: Alopecurus myosuroides, herbicidal effect grade [8] | M: Abutilon theophrasti, herbicidal effect grade [9] | P: Stellaria media, herbicidal effect grade [10] | R: Veronica persica, herbicidal effect grade [11] | c: corn, effect on crop grade [12] | P: Stellaria media, herbicidal effect (criteria of Test Example 1) [13] | e: wheat, effect on crop (criteria of Test Example 1) [14] | g: rapeseed, effect on crop (criteria of Test Example 1) [15]
CON=C(C)CC1CC(O)=C(c2c(C)cc(C)cc2SC)C1=O (stereo not drawn) [6-075] | 1 (Herbicidal ratio of 5% or higher and lower than 20%) | 1 (Herbicidal ratio of 5% or higher and lower than 20%) | 3 (Herbicidal ratio of 40% or higher and lower than 70%) | 3 (Herbicidal ratio of 40% or higher and lower than 70%) | 3 (Herbicidal ratio of 40% or higher and lower than 70%) | 0 (Herbicidal ratio of 5% or lower (almost no effect)) | 0 (Herbicidal ratio of 5% or lower (almost no effect)) | 4 (Herbicidal ratio of 70% or higher and lower than 90%) | 0 (Herbicidal ratio of 5% or lower (almost no effect)) | 0 (Herbicidal ratio of 5% or lower (almost no effect)) | 0 (Herbicidal ratio of 5% or lower (almost no effect)) | 0 (Herbicidal ratio of 5% or lower (almost no effect)) | 0 (Herbicidal ratio of 5% or lower (almost no effect)) | 2 (Herbicidal ratio of 20% or higher and lower than 40%) | 3 (Herbicidal ratio of 40% or higher and lower than 70%)
CON=C(C)CC1CC(O)=C(c2c(C)cc(-c3ccc(Cl)cc3)cc2OC)C1=O (stereo not drawn) [6-077, 2-(4′-chloro-3-methoxy-5-methyl-[1,1′-biphenyl]-4-yl)-3-hydroxy-5-{2-(methoxyimino)propyl}cyclopent-2-enone] | 5 (Herbicidal ratio of 90% or more (almost completely withered)) | 3 (Herbicidal ratio of 40% or higher and lower than 70%) | 5 (Herbicidal ratio of 90% or more (almost completely withered)) | 5 (Herbicidal ratio of 90% or more (almost completely withered)) | 5 (Herbicidal ratio of 90% or more (almost completely withered)) | 5 (Herbicidal ratio of 90% or more (almost completely withered)) | 5 (Herbicidal ratio of 90% or more (almost completely withered)) | 5 (Herbicidal ratio of 90% or more (almost completely withered)) | 5 (Herbicidal ratio of 90% or more (almost completely withered)) | 3 (Herbicidal ratio of 40% or higher and lower than 70%) | 4 (Herbicidal ratio of 70% or higher and lower than 90%) | 0 (Herbicidal ratio of 5% or lower (almost no effect)) | 4 (Herbicidal ratio of 70% or higher and lower than 90%) | 5 (Herbicidal ratio of 90% or more (almost completely withered)) | 5 (Herbicidal ratio of 90% or more (almost completely withered))
CON=C(C)CC1CC(OC(=O)N2CCOCC2)=C(c2c(C)cc(-c3ccc(Cl)cc3)cc2OC)C1=O (stereo not drawn) [6-078, 2-(4′-chloro-3-methoxy-5-methyl-[1,1′-biphenyl]-4-yl)-4-{2-(methoxyimino)propyl}-3-oxocyclopent-1-ene-1-yl morpholine-4-carboxylate] | 4 (Herbicidal ratio of 70% or higher and lower than 90%) | 3 (Herbicidal ratio of 40% or higher and lower than 70%) | 5 (Herbicidal ratio of 90% or more (almost completely withered)) | 5 (Herbicidal ratio of 90% or more (almost completely withered)) | 0 (Herbicidal ratio of 5% or lower (almost no effect)) | 5 (Herbicidal ratio of 90% or more (almost completely withered)) | 5 (Herbicidal ratio of 90% or more (almost completely withered)) | 0 (Herbicidal ratio of 5% or lower (almost no effect)) | 1 (Herbicidal ratio of 5% or higher and lower than 20%) | 0 (Herbicidal ratio of 5% or lower (almost no effect)) | 0 (Herbicidal ratio of 5% or lower (almost no effect)) | 0 (Herbicidal ratio of 5% or lower (almost no effect)) | 3 (Herbicidal ratio of 40% or higher and lower than 70%) | 5 (Herbicidal ratio of 90% or more (almost completely withered)) | 4 (Herbicidal ratio of 70% or higher and lower than 90%)
CON=C(C)CC1CC(OC(=O)COc2ccccc2)=C(c2c(C)cc(-c3ccc(Cl)cc3)cc2OC)C1=O (stereo not drawn) [6-079] | 3 (Herbicidal ratio of 40% or higher and lower than 70%) | 3 (Herbicidal ratio of 40% or higher and lower than 70%) | 5 (Herbicidal ratio of 90% or more (almost completely withered)) | 5 (Herbicidal ratio of 90% or more (almost completely withered)) | 4 (Herbicidal ratio of 70% or higher and lower than 90%) | 5 (Herbicidal ratio of 90% or more (almost completely withered)) | 5 (Herbicidal ratio of 90% or more (almost completely withered)) | 3 (Herbicidal ratio of 40% or higher and lower than 70%) | 1 (Herbicidal ratio of 5% or higher and lower than 20%) | 0 (Herbicidal ratio of 5% or lower (almost no effect)) | 3 (Herbicidal ratio of 40% or higher and lower than 70%) | 0 (Herbicidal ratio of 5% or lower (almost no effect)) | 3 (Herbicidal ratio of 40% or higher and lower than 70%) | 5 (Herbicidal ratio of 90% or more (almost completely withered)) | 4 (Herbicidal ratio of 70% or higher and lower than 90%)
